Experimental data published in ChEMBL document CHEMBL3526078, “Pharmacokinetics and hepatic uptake of eltrombopag, a novel platelet-increasing agent” (Drug Metab Dispos, 2011).
In brackets after ≈: the same amount, converted by molar mass.

Experiments:
[1] = Solubility of the compound; assay type: physicochemical
[2] = Drug excretion in Sprague-Dawley rat bile assessed as unchanged compound level at 1 mg/kg, iv for 72 hrs; assay type: ADME, organism-based; parameters: dose 1 mg/kg, route intravenous; conditions: read-out: Drug excretion
[3] = Distribution volume to the central compartment in Sprague-Dawley rat urine at 1 mg/kg, iv; assay type: ADME, organism-based; parameters: dose 1 mg/kg, route intravenous; conditions: read-out: Vc
[4] = system: Hepatocyte; assay: Drug uptake in mouse hepatocytes in presence of carbonyl cyanide-para-trifluoromethoxyphenylhydrazone ATP depletor; assay type: ADME, cell-based
[5] = target: T1, Solute carrier family 22 member 1 (Homo sapiens, UniProt O15245); assay: Inhibition of OCT1-mediated [14C]tetraethylammonium uptake in human OCT1 expressing HEK293/PDZK1 cells by scintillation counting; assay type: ADME, cell-based
T1 sequence (O15245 whole entry): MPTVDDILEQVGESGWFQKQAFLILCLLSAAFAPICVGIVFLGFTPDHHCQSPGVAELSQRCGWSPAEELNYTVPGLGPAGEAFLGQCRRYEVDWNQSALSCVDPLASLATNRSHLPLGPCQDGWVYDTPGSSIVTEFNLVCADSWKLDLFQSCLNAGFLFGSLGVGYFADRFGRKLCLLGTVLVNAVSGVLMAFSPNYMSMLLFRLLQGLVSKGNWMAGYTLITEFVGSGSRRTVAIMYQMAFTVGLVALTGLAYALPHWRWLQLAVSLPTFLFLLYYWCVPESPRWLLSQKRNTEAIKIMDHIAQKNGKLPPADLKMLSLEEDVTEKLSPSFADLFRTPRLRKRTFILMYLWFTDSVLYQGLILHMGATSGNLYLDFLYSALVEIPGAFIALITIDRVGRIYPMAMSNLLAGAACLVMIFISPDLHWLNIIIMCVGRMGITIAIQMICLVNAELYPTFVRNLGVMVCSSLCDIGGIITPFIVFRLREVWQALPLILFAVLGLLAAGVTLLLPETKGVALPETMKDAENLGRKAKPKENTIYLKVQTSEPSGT

[6] = system: Hepatocyte; assay: Drug uptake in mouse hepatocytes at pH 5.5; assay type: ADME, cell-based
[7] = Total clearance in bile-duct cannulated Sprague-Dawley rat at 1 mg/kg, iv in presence of 20 mg/kg rifampicin (reference value: 34.3 +/- 3.9 ml/h/kg); assay type: ADME, organism-based; conditions: in vivo
[8] = Total clearance in Sprague-Dawley rat at 1 mg/kg, iv; assay type: ADME, organism-based; parameters: dose 1 mg/kg, route intravenous; conditions: in vivo
[9] = system: Hepatocyte; assay: Drug uptake in mouse hepatocytes in presence of verapamil; assay type: ADME, cell-based
[10] = system: Hepatocyte; assay: Drug uptake in mouse hepatocytes at pH 7.4; assay type: ADME, cell-based
[11] = Drug excretion in Sprague-Dawley rat urine assessed as unchanged compound level at 1 mg/kg, iv for 72 hrs; assay type: ADME, organism-based; parameters: dose 1 mg/kg, route intravenous; conditions: read-out: Drug excretion
[12] = system: Hepatocyte; assay: Drug uptake in mouse hepatocytes in presence of rifampicin OATP inhibitor; assay type: ADME, cell-based
[13] = system: Hepatocyte; assay: Drug uptake in mouse hepatocytes in presence of rotenone ATP depletor; assay type: ADME, cell-based
[14] = system: Hepatocyte; assay: Drug uptake in mouse hepatocytes in presence of tetraethylammonium; assay type: ADME, cell-based
[15] = system: Liver; conditions: rat, in vivo, iv, 1 mg/kg
[16] = system: Liver; assay: Tissue uptake clearance in bile duct cannulated Sprague-Dawley rat liver at 1 mg/kg, iv by integration plot analysis; assay type: ADME, organism-based; parameters: dose 1 mg/kg, route intravenous; conditions: in vivo
[17] = system: Hepatocyte; assay: Drug uptake in mouse hepatocytes in absence of Cl-; assay type: ADME, cell-based
[18] = system: Hepatocyte; assay: Drug uptake in mouse hepatocytes in presence of quinidine; assay type: ADME, cell-based
[19] = system: Kidney; assay: Drug uptake in mouse kidney at 1 mg/kg, iv in presence of 20 mg/kg OATP inhibitor rifampicin; assay type: ADME, organism-based; conditions: in vivo
[20] = Drug metabolism in human urine assessed as oxidized metabolites at 50 mg, po single dose; assay type: ADME, organism-based; conditions: in vivo
[21] = Total clearance in pdzk1(-/-) mouse at 1 mg/kg, iv; assay type: ADME, organism-based; parameters: dose 1 mg/kg, route intravenous; conditions: in vivo
[22] = Clearance in Sprague-Dawley rat urine at 1 mg/kg, iv; assay type: ADME, organism-based; parameters: dose 1 mg/kg, route intravenous
[23] = Maximum plasma concentration in mouse at 1 mg/kg, iv; assay type: ADME, organism-based; parameters: dose 1 mg/kg, route intravenous
[24] = Drug metabolism in human feces assessed as oxidized metabolites at 50 mg, po single dose; assay type: ADME, organism-based; conditions: in vivo
[25] = system: Hepatocyte; assay: Drug uptake in mouse hepatocytes in presence of taurocholate OATP inhibitor; assay type: ADME, cell-based
[26] = target: T2, Organic cation/carnitine transporter 2 (Homo sapiens, UniProt O76082); assay: Inhibition of OCTN2-mediated [14C]carnitine uptake in human OCTN2 expressing HEK293/PDZK1 cells by scintillation counting; assay type: cell-based
T2 sequence (O76082 whole entry): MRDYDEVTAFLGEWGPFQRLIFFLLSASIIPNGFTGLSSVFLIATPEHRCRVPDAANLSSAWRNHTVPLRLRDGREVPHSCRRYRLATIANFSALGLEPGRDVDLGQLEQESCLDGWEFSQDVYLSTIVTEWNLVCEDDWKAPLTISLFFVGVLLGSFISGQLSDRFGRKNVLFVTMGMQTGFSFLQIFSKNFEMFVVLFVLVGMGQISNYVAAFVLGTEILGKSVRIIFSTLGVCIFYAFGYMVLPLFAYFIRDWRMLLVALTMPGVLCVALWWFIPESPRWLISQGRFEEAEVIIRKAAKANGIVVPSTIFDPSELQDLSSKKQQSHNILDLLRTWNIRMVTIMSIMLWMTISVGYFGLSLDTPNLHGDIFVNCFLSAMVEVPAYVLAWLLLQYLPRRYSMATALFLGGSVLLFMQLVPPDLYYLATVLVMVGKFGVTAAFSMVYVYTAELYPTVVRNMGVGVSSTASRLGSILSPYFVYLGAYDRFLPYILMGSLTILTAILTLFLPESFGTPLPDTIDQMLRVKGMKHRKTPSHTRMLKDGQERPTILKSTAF

[27] = system: Hepatocyte; assay: Drug uptake in mouse hepatocytes in presence of TPeA; assay type: ADME, cell-based
[28] = system: Liver; assay: Drug uptake in mouse liver at 1 mg/kg, iv in presence of 30 umol/kg TPeA; assay type: ADME, organism-based; parameters: dose 1 mg/kg, route intravenous; conditions: in vivo
[29] = system: Hepatocyte; assay: Drug uptake in mouse hepatocytes at 37 degC up to 5 mins; assay type: ADME, cell-based

## CC1=NN(c2ccc(C)c(C)c2)C(=O)/C1=N\Nc1cccc(-c2cccc(C(=O)O)c2)c1O [ELTROMBOPAG]
[1]
  solubility: 200 µM (≈ 88.5 µg/mL)
[2]
  dose excreted at 72 h: 40%
[3]
  Vd: 0.0411 L/kg
[4]
  Drug uptake: Not Active
[5]
  Ki: 103 µM
[5]; human, hek293/pdzk1
  inhibition (INH): Active
[6]
  Drug uptake: Active
[7]
  clearance: 0.335 mL/min/kg
[8]
  clearance: 0.55 mL/min/kg
[9]
  Drug uptake: Not Active
[10]
  Drug uptake: Active
[11]
  dose excreted at 72 h: < 0.02%
[12]
  Drug uptake: Not Active
[13]
  Drug uptake: Not Active
[14]
  Drug uptake: Not Active
[15]
  CLup: 0.38 mL/min/kg
[16]
  CLup: 0.747 mL/min/kg
[17]
  Drug uptake: Active
[18]
  Drug uptake: Not Active
[19]
  Drug uptake: Active
[20]
  Drug excretion: 31%
[21]
  clearance: 0.92 mL/min/kg
[22]
  CL renal: < 0.00117 mL/min/kg
[23]
  Cmax: 40 µM
[24]
  Drug excretion: 59%
[25]
  Drug uptake: Not Active
[26]
  inhibition (INH): Not Active
[27]
  Drug uptake: Not Active
[28]
  Drug uptake: Not Active
[29]
  Drug uptake: Active
